Laboratory results taken from the supplement of paper PMC10307832.

What was measured:
Assay in all cases: relative viability (nuclei count vs DMSO), 5 days (fraction); higher = more cells survive
[1] = test system: LU99A
Method in brief: (§1)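 The day after seeding in 1536-well plates, lung cancer cell lines were treated by pin tool with a single drug, or with a fixed anchor-drug dose together with five library-drug doses (not always all listed) in √10 steps. After 5 days, a combined fix-and-stain solution (final 0.05% Triton X-100, 1% formaldehyde, 1 ug/ml Hoechst) was added. Nuclei counted on 4× images gave relative viability as treated counts over vehicle counts, reported as the median of duplicate plates.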

[2] = test system: SW 1573
Method in brief: as §1

[3] = test system: ChaGo-K-1
Method in brief: as §1

[4] = test system: NCI-H1355
Method in brief: as §1

[5] = test system: NCI-H3122
Method in brief: as §1

[6] = test system: EKVX
Method in brief: as §1

[7] = test system: NCI-H2228
Method in brief: as §1

[8] = test system: NCI-H2170
Method in brief: as §1

[9] = test system: SK-LU-1
Method in brief: as §1

[10] = test system: HOP-62
Method in brief: as §1

[11] = test system: PC-3 [JPC-3]
Method in brief: as §1

## Cc1cn(-c2cc(NC(=O)c3ccc(C)c(Nc4nccc(-c5cccnc5)n4)c3)cc(C(F)(F)F)c2)cn1 [Nilotinib] + C[C@@H](Oc1cc(-c2cnn(C3CCNCC3)c2)cnc1N)c1c(Cl)ccc(F)c1Cl [Crizotinib] (partner 1 µM)
[1]; first compound 0.003162 µM
  relative viability: 0.545
[1]; first compound 0.01 µM
  relative viability: 0.629
[1]; first compound 0.03162 µM
  relative viability: 0.429
[1]; first compound 0.1 µM
  relative viability: 0.343
[2]; first compound 0.001 µM
  relative viability: 0.798
[2]; first compound 0.003162 µM
  relative viability: 0.882
[2]; first compound 0.01 µM
  relative viability: 0.946
[2]; first compound 0.03162 µM
  relative viability: 0.826
[2]; first compound 0.1 µM
  relative viability: 0.823
[3]; first compound 0.001 µM
  relative viability: 1.1
[3]; first compound 0.003162 µM
  relative viability: 1.08
[3]; first compound 0.01 µM
  relative viability: 1.27
[3]; first compound 0.03162 µM
  relative viability: 0.674
[3]; first compound 0.1 µM
  relative viability: 1.08
[4]; first compound 0.001 µM
  relative viability: 1.05
[4]; first compound 0.003162 µM
  relative viability: 1.15
[4]; first compound 0.01 µM
  relative viability: 1.38
[4]; first compound 0.03162 µM
  relative viability: 0.909
[4]; first compound 0.1 µM
  relative viability: 1.09
[5]; first compound 0.001 µM
  relative viability: 0.298
[5]; first compound 0.003162 µM
  relative viability: 0.314
[5]; first compound 0.01 µM
  relative viability: 0.33
[5]; first compound 0.03162 µM
  relative viability: 0.3
[5]; first compound 0.1 µM
  relative viability: 0.328
[6]; first compound 0.001 µM
  relative viability: 0.812
[6]; first compound 0.003162 µM
  relative viability: 1.39
[6]; first compound 0.01 µM
  relative viability: 1.42
[6]; first compound 0.03162 µM
  relative viability: 0.809
[6]; first compound 0.1 µM
  relative viability: 1.13
[7]; first compound 0.001 µM
  relative viability: 0.53
[7]; first compound 0.003162 µM
  relative viability: 0.418
[7]; first compound 0.01 µM
  relative viability: 0.606
[7]; first compound 0.03162 µM
  relative viability: 0.461
[7]; first compound 0.1 µM
  relative viability: 0.294
[8]; first compound 0.001 µM
  relative viability: 1.12
[8]; first compound 0.003162 µM
  relative viability: 1.21
[8]; first compound 0.01 µM
  relative viability: 1.61
[8]; first compound 0.03162 µM
  relative viability: 0.915
[8]; first compound 0.1 µM
  relative viability: 1.19
[9]; first compound 0.001 µM
  relative viability: 0.893
[9]; first compound 0.003162 µM
  relative viability: 0.888
[9]; first compound 0.01 µM
  relative viability: 0.933
[9]; first compound 0.03162 µM
  relative viability: 0.805
[9]; first compound 0.1 µM
  relative viability: 0.693
[10]; first compound 0.001 µM
  relative viability: 0.738
[10]; first compound 0.003162 µM
  relative viability: 1.22
[10]; first compound 0.01 µM
  relative viability: 1.13
[10]; first compound 0.03162 µM
  relative viability: 0.796
[10]; first compound 0.1 µM
  relative viability: 0.738
[11]; first compound 0.001 µM
  relative viability: 0.987
[11]; first compound 0.003162 µM
  relative viability: 1.23
[11]; first compound 0.01 µM
  relative viability: 1.06
[11]; first compound 0.03162 µM
  relative viability: 0.882
[11]; first compound 0.1 µM
  relative viability: 0.88
